PubChem BioAssay AID1919005 (Molecular Pharmacology Branch, DTP, NCI, 2023)
Several values for one entry are separate records, joined by “and”; a condition that tells them apart may be missing. Identical values can stand only once.

System: 855422-203-R-J1-PDC complex spheroid growth
Test: Anticancer human tumor 855422-203-R-J1-PDC patient-derived bladder carcinoma cell line growth inhibition [AhR]
Settings: for viability, T/C: stronger effect = lower value
How it was run: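 Complex tumor spheroids co-cultured with HUVEC and human MSC stroma; AhR antagonists tested in combination with standard-of-care and investigational agents. Top concentration at or near clinical Cmax (else 10 microM), half-log dilutions; growth expressed as percent test/control.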

[1] = curve of first compound, second compound 0.1 µM
[2] = curve of first compound, second compound 0.316 µM
[3] = curve of first compound, second compound 1 µM
[4] = curve of first compound, second compound 3.16 µM
[5] = curve of first compound, second compound 10 µM
[6] = second compound 0.1 µM, first compound 0.000949 µM
[7] = second compound 0.1 µM, first compound 0.003 µM
[8] = second compound 0.1 µM, first compound 0.00949 µM
[9] = second compound 0.1 µM, first compound 0.03 µM
[10] = second compound 0.1 µM, first compound 0.0949 µM
[11] = second compound 0.1 µM, first compound 0.3 µM
[12] = second compound 0.316 µM, first compound 0.000949 µM
[13] = second compound 0.316 µM, first compound 0.003 µM
[14] = second compound 0.316 µM, first compound 0.00949 µM
[15] = second compound 0.316 µM, first compound 0.03 µM
[16] = second compound 0.316 µM, first compound 0.0949 µM
[17] = second compound 0.316 µM, first compound 0.3 µM
[18] = second compound 1 µM, first compound 0.000949 µM
[19] = second compound 1 µM, first compound 0.003 µM
[20] = second compound 1 µM, first compound 0.00949 µM
[21] = second compound 1 µM, first compound 0.03 µM
[22] = second compound 1 µM, first compound 0.0949 µM
[23] = second compound 1 µM, first compound 0.3 µM
[24] = second compound 3.16 µM, first compound 0.000949 µM
[25] = second compound 3.16 µM, first compound 0.003 µM
[26] = second compound 3.16 µM, first compound 0.00949 µM
[27] = second compound 3.16 µM, first compound 0.03 µM
[28] = second compound 3.16 µM, first compound 0.0949 µM
[29] = second compound 3.16 µM, first compound 0.3 µM
[30] = second compound 10 µM, first compound 0.000949 µM
[31] = second compound 10 µM, first compound 0.003 µM
[32] = second compound 10 µM, first compound 0.00949 µM
[33] = second compound 10 µM, first compound 0.03 µM
[34] = second compound 10 µM, first compound 0.0949 µM
[35] = second compound 10 µM, first compound 0.3 µM
[36] = second compound 0.1 µM, first compound 0.0316 µM
[37] = second compound 0.1 µM, first compound 0.1 µM
[38] = second compound 0.1 µM, first compound 0.316 µM
[39] = second compound 0.1 µM, first compound 1 µM
[40] = second compound 0.1 µM, first compound 3.16 µM
[41] = second compound 0.1 µM, first compound 10 µM
[42] = second compound 0.316 µM, first compound 0.0316 µM
[43] = second compound 0.316 µM, first compound 0.1 µM
[44] = second compound 0.316 µM, first compound 0.316 µM
[45] = second compound 0.316 µM, first compound 1 µM
[46] = second compound 0.316 µM, first compound 3.16 µM
[47] = second compound 0.316 µM, first compound 10 µM
[48] = second compound 1 µM, first compound 0.0316 µM
[49] = second compound 1 µM, first compound 0.1 µM
[50] = second compound 1 µM, first compound 0.316 µM
[51] = second compound 1 µM, first compound 1 µM
[52] = second compound 1 µM, first compound 3.16 µM
[53] = second compound 1 µM, first compound 10 µM
[54] = second compound 3.16 µM, first compound 0.0316 µM
[55] = second compound 3.16 µM, first compound 0.1 µM
[56] = second compound 3.16 µM, first compound 0.316 µM
[57] = second compound 3.16 µM, first compound 1 µM
[58] = second compound 3.16 µM, first compound 3.16 µM
[59] = second compound 3.16 µM, first compound 10 µM
[60] = second compound 10 µM, first compound 0.0316 µM
[61] = second compound 10 µM, first compound 0.1 µM
[62] = second compound 10 µM, first compound 0.316 µM
[63] = second compound 10 µM, first compound 1 µM
[64] = second compound 10 µM, first compound 3.16 µM
[65] = second compound 10 µM, first compound 10 µM
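Note: spheroids exposed to agents for seven days before readout.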
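Throughout, for viability, T/C: percent of DMSO vehicle control luminescence viability.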

CCc1c2c(nc3ccc(O)cc13)-c1cc3c(c(=O)n1C2)COC(=O)[C@]3(O)CC + CC(CO)NC(=O)c1cc(-c2ccc(Cl)cc2)nn(-c2cnn(C)c2)c1=O
IC50 [1]: 5.26 nM
IC50 [2]: 4.51 nM
IC50 [3]: 3.42 nM
IC50 [4]: 1.92 nM
IC50 [5]: 1.48 nM
viability, T/C [6]: 95.5%
viability, T/C [7]: 78.9%
viability, T/C [8]: 19.4%
viability, T/C [9]: 13.2%
viability, T/C [10]: 9.5%
viability, T/C [11]: 6.28%
viability, T/C [12]: 85.6%
viability, T/C [13]: 68.7%
viability, T/C [14]: 15.6%
viability, T/C [15]: 12.3%
viability, T/C [16]: 6.86%
viability, T/C [17]: 4.21%
viability, T/C [18]: 86.5%
viability, T/C [19]: 54.7%
viability, T/C [20]: 13.9%
viability, T/C [21]: 11%
viability, T/C [22]: 6.82%
viability, T/C [23]: 4.24%
viability, T/C [24]: 72.2%
viability, T/C [25]: 36.3%
viability, T/C [26]: 12.8%
viability, T/C [27]: 10.2%
viability, T/C [28]: 6.61%
viability, T/C [29]: 4.22%
viability, T/C [30]: 65.5%
viability, T/C [31]: 25.4%
viability, T/C [32]: 12.6%
viability, T/C [33]: 9.84%
viability, T/C [34]: 6.11%
viability, T/C [35]: 4.31%

COc1cc(C2c3cc4c(cc3C(OC3OC5COC(C)OC5C(O)C3O)C3COC(=O)C23)OCO4)cc(OC)c1O (centres undefined) + Cc1cncc(-c2nc(NCCc3c[nH]c4ccccc34)c3ncn(C(C)C)c3n2)c1
IC50 [1]: 372 nM
IC50 [2]: 207 nM
IC50 [3]: 207 nM
IC50 [4]: 173 nM
IC50 [5]: < 31.6 nM
viability, T/C [36]: 85.9%
viability, T/C [37]: 85.5%
viability, T/C [38]: 55.4%
viability, T/C [39]: 14.8%
viability, T/C [40]: 9.41%
viability, T/C [41]: 3.49%
viability, T/C [42]: 88.4%
viability, T/C [43]: 83.7%
viability, T/C [44]: 30.2%
viability, T/C [45]: 15%
viability, T/C [46]: 8.46%
viability, T/C [47]: 3.99%
viability, T/C [48]: 83.8%
viability, T/C [49]: 79.7%
viability, T/C [50]: 32.5%
viability, T/C [51]: 14.4%
viability, T/C [52]: 8.33%
viability, T/C [53]: 6.08%
viability, T/C [54]: 76.8%
viability, T/C [55]: 73.7%
viability, T/C [56]: 24.4%
viability, T/C [57]: 13.2%
viability, T/C [58]: 6.72%
viability, T/C [59]: 4.03%
viability, T/C [60]: 9.82%
viability, T/C [61]: 11.7%
viability, T/C [62]: 1.25%
viability, T/C [63]: 0.55%
viability, T/C [64]: 1.09%
viability, T/C [65]: 2.98%

Nc1ncn(C2CC(O)C(CO)S2)c(=O)n1 (centres undefined)
viability, T/C (compound 0.000949 µM): 108% and 96.3% and 97.9%
viability, T/C (compound 0.003 µM): 93.2% and 97.4% and 100%
viability, T/C (compound 0.00949 µM): 95.8% and 97.7% and 113%
viability, T/C (compound 0.03 µM): 82.9% and 103% and 95.7%
viability, T/C (compound 0.0949 µM): 86.4% and 98.1% and 91.1%
viability, T/C (compound 0.3 µM): 81.6% and 99.8% and 82.1%
IC50 (curve of compound): > 300 nM

O=C(C=Cc1cccc(S(=O)(=O)Nc2ccccc2)c1)NO + CC(CO)NC(=O)c1cc(-c2ccc(Cl)cc2)nn(-c2cnn(C)c2)c1=O
IC50 [1]: 2150 nM
IC50 [2]: 1970 nM
IC50 [3]: 2030 nM
IC50 [4]: 1540 nM
IC50 [5]: 1730 nM
viability, T/C [36]: 87.4%
viability, T/C [37]: 88.6%
viability, T/C [38]: 91.1%
viability, T/C [39]: 71.7%
viability, T/C [40]: 38.5%
viability, T/C [41]: 1.42%
viability, T/C [42]: 89.1%
viability, T/C [43]: 88.2%
viability, T/C [44]: 92.7%
viability, T/C [45]: 70.6%
viability, T/C [46]: 34.7%
viability, T/C [47]: 0.82%
viability, T/C [48]: 93.7%
viability, T/C [49]: 87.8%
viability, T/C [50]: 86.6%
viability, T/C [51]: 79.8%
viability, T/C [52]: 31.7%
viability, T/C [53]: 0.88%
viability, T/C [54]: 83.2%
viability, T/C [55]: 86.8%
viability, T/C [56]: 90.7%
viability, T/C [57]: 60.3%
viability, T/C [58]: 27.9%
viability, T/C [59]: 0.71%
viability, T/C [60]: 87.2%
viability, T/C [61]: 90.3%
viability, T/C [62]: 79.4%
viability, T/C [63]: 67.3%
viability, T/C [64]: 31.8%
viability, T/C [65]: 0.94%

CCc1c2c(nc3ccc(O)cc13)-c1cc3c(c(=O)n1C2)COC(=O)[C@]3(O)CC + Cc1cncc(-c2nc(NCCc3c[nH]c4ccccc34)c3ncn(C(C)C)c3n2)c1
IC50 [1]: 2.9 nM
IC50 [2]: 1.98 nM
IC50 [3]: 1.81 nM
IC50 [4]: 1.09 nM
IC50 [5]: < 0.949 nM
viability, T/C [6]: 99.6%
viability, T/C [7]: 48.6%
viability, T/C [8]: 12.1%
viability, T/C [9]: 9.21%
viability, T/C [10]: 6.44%
viability, T/C [11]: 3.75%
viability, T/C [12]: 76.5%
viability, T/C [13]: 35%
viability, T/C [14]: 9.9%
viability, T/C [15]: 10%
viability, T/C [16]: 6.31%
viability, T/C [17]: 4.22%
viability, T/C [18]: 72.3%
viability, T/C [19]: 32.6%
viability, T/C [20]: 11.4%
viability, T/C [21]: 9.74%
viability, T/C [22]: 6.96%
viability, T/C [23]: 4.13%
viability, T/C [24]: 54.2%
viability, T/C [25]: 22.2%
viability, T/C [26]: 10.7%
viability, T/C [27]: 4.55%
viability, T/C [28]: 5.79%
viability, T/C [29]: 3.2%
viability, T/C [30]: 3.26%
viability, T/C [31]: 2.2%
viability, T/C [32]: 3.05%
viability, T/C [33]: 0.55%
viability, T/C [34]: 1.43%
viability, T/C [35]: 1.83%

NS(=O)(=O)OCC1CC(n2ccc3c(NC4CCc5ccccc54)ncnc32)CC1O (centres undefined)
viability, T/C (compound 0.0316 µM): 99.2% and 99.8% and 104%
viability, T/C (compound 0.1 µM): 113% and 118% and 105%
viability, T/C (compound 0.316 µM): 114% and 130% and 106%
viability, T/C (compound 1 µM): 91.4% and 97.8% and 66.8%
viability, T/C (compound 3.16 µM): 35.2% and 53.6% and 26.8%
viability, T/C (compound 10 µM): 9.55% and 14.4% and 8.49%
IC50 (curve of compound): 2340 nM and 3420 nM and 1640 nM

CCN(c1cc(-c2ccc(CN3CCOCC3)cc2)cc(C(=O)NCc2c(C)cc(C)[nH]c2=O)c1C)C1CCOCC1 + Cc1cncc(-c2nc(NCCc3c[nH]c4ccccc34)c3ncn(C(C)C)c3n2)c1
IC50 [1]: > 3000 nM
IC50 [2]: > 3000 nM
IC50 [3]: > 3000 nM
IC50 [4]: > 3000 nM
IC50 [5]: < 9.49 nM
viability, T/C [8]: 90.5%
viability, T/C [9]: 84.7%
viability, T/C [10]: 92%
viability, T/C [11]: 83.1%
viability, T/C (second compound 0.1 µM, first compound 0.949 µM): 85.3%
viability, T/C (second compound 0.1 µM, first compound 3 µM): 70.7%
viability, T/C [14]: 88.9%
viability, T/C [15]: 78.3%
viability, T/C [16]: 86.6%
viability, T/C [17]: 74.2%
viability, T/C (second compound 0.316 µM, first compound 0.949 µM): 76.2%
viability, T/C (second compound 0.316 µM, first compound 3 µM): 75.7%
viability, T/C [20]: 89.4%
viability, T/C [21]: 85.7%
viability, T/C [22]: 74.8%
viability, T/C [23]: 75%
viability, T/C (second compound 1 µM, first compound 0.949 µM): 76.1%
viability, T/C (second compound 1 µM, first compound 3 µM): 73.7%
viability, T/C [26]: 74.8%
viability, T/C [27]: 85.5%
viability, T/C [28]: 64.1%
viability, T/C [29]: 51.7%
viability, T/C (second compound 3.16 µM, first compound 0.949 µM): 69%
viability, T/C (second compound 3.16 µM, first compound 3 µM): 66.3%
viability, T/C [32]: 24.9%
viability, T/C [33]: 32.4%
viability, T/C [34]: 15.5%
viability, T/C [35]: 1.7%
viability, T/C (second compound 10 µM, first compound 0.949 µM): 4.26%
viability, T/C (second compound 10 µM, first compound 3 µM): 0.96%
